Source: publication PMC11494886, “Discovery and design of molecular glue enhancers of CDK12–DDB1 interactions for targeted degradation of cyclin K” (RSC Chemical Biology, 2024)

What was measured:
[1] = target: T1, DDB1 (Homo sapiens, UniProt Q16531, DEL396-705); experiment: Microscale thermophoresis, DDB1 without CDK12/cyclin K; type: binding; conditions: MST, absence of CDK12/cyclin K
T1 construct: made in house; host or cells: Spodoptera frugiperda SF9 insect cells (Bac-to-Bac)
Protocol: Finally, the capacity of small molecules to induce a ternary complex between CDK12/cyclin K and DDB1 in vitro was assessed by microscale thermophoresis (MST). […]
The gene of human DDB1 (Uniprot: Q16531) with a beta-propeller B domain deletion (ΔBPB: a.a. 396–705 deleted) was subcloned into pFastBac1 vector with an N-terminal His8-tag and a HRV 3C cleavage site (GeneScript), and the recombinant protein was expressed in Spodoptera frugiperda SF9 insect cells in sf900™ II SFM culture medium using the Bac to Bac™ baculovirus expression system (Gibco™). […]
A protocol to assess ternary binding of molecular glues with CDK12/cycK and DDB1 by MST was established using published procedures for PROTAC interaction with bromodomains and E3 ubiquitin ligases.[38] […] After 5 min incubation at room temperature, the samples were loaded in MO-K022 standard treated capillaries (NanoTemper Technologies) and measured by a Monolith NT.115 Pico instrument (NanoTemper Technologies) at 40% MST power and 20% excitation power (auto-detect) on Pico-Red detector at 22 °C. MST traces were recorded using standard parameters: 5 s MST power off, 30 s MST power on and 5 s MST power off. […]

[2] = target: T2, CDK12/cyclin K + DDB1 (Homo sapiens, UniProt Q16531+Q9NYV4, DEL396-705); experiment: Microscale thermophoresis, ternary complex formation; type: binding; conditions: MST, labeled DDB1ΔBPB + CDK12/cyclin K
T2 construct: The kinase domain of human CDK12 (Uniprot: Q9NYV4; a.a; 715–1050); GST (N, cleaved yes); made in house; host or cells: Spodoptera frugiperda SF9 insect cells (Bac-to-Bac); CDK12/cyclin K co-infected with S. cerevisiae CAK1
T2 sequence (Q16531 with tags, fused parts or gaps DEL396-705): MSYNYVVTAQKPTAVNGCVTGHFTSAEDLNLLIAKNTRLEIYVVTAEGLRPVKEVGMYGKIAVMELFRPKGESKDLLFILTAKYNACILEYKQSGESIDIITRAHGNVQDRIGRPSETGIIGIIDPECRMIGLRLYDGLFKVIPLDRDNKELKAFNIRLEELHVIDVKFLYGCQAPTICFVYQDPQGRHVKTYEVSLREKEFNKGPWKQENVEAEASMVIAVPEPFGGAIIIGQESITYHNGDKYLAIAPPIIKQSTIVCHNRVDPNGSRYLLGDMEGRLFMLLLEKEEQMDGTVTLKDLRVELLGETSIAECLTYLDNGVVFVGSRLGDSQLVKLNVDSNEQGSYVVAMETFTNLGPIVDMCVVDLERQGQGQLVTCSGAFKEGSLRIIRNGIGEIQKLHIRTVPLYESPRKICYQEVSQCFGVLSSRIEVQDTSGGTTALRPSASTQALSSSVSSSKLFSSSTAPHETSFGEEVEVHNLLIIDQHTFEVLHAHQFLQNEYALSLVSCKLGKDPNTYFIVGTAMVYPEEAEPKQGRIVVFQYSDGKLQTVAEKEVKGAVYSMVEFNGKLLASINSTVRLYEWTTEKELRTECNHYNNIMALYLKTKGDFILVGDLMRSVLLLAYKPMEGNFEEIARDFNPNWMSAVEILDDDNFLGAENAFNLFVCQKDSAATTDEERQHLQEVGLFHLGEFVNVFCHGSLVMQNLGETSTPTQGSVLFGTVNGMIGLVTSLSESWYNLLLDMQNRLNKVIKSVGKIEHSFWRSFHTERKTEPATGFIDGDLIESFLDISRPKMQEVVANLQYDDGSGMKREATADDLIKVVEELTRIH
T2 sequence (Q9NYV4 715-1050, stated change not applied): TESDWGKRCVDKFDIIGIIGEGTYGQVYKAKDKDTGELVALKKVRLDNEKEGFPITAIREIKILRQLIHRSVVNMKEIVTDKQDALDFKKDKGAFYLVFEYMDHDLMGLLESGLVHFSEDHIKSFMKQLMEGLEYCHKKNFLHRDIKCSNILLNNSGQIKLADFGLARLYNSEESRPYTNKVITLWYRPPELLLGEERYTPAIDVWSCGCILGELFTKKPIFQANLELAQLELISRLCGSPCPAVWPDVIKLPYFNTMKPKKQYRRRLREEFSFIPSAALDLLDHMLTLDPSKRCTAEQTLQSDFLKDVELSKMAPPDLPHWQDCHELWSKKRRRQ
T2 sequence (O75909 11-267 partner limits assumed): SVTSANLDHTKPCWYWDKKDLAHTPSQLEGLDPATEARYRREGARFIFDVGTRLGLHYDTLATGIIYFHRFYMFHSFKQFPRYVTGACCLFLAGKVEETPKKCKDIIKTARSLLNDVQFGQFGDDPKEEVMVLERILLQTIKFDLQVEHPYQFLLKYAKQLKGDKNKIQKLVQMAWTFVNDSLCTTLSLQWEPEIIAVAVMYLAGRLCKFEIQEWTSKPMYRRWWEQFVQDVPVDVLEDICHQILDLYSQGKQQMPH
Protocol: Finally, the capacity of small molecules to induce a ternary complex between CDK12/cyclin K and DDB1 in vitro was assessed by microscale thermophoresis (MST). Labeled DDB1ΔBPB was combined with purified CDK12/cyclin K, and fluorescence intensity was monitored with increasing compound concentrations.
Cell pellets were harvested 48 hours post infection via centrifugation and lysed in buffer A (50 mM Tris–HCl (pH 8.0), 200 mM NaCl, 10 mM imidazole, 0.5 mM tris(2-carboxyethyl) phosphine (TCEP)) supplemented with EDTA-free Pierce™ protease inhibitor tablet (Thermo Fisher Scientific). […] The concentrated protein at 2 mg mL^−1 was flash-frozen in liquid nitrogen and stored at −80 °C.
Full-length S. cerevisiae CAK1 (Uniprot: P43568) with an N-terminal His6 tag was subcloned into pFastBac 1 vector. […] The eluted CDK12/cyclin K complex was concentrated to 2 mg mL^−1, flash-frozen in liquid nitrogen and stored at −80 °C.
A protocol to assess ternary binding of molecular glues with CDK12/cycK and DDB1 by MST was established using published procedures for PROTAC interaction with bromodomains and E3 ubiquitin ligases.[38] His8-DDB1-ΔBPB was labeled with the MO-L018 Monolith™ His-tag Labeling Kit RED-tris-NTA 2nd Generation (NanoTemper Technologies) following the instruction manual. 100 nM dye was mixed with 200 nM DDB1 in 50 mM HEPES pH 7.5, 150 mM NaCl, 5% glycerol, 0.05% Tween, and incubated at room temperature for 30 min. […] MST traces were recorded using standard parameters: 5 s MST power off, 30 s MST power on and 5 s MST power off. Measurements were taken at −1 to 0 s (cold region) and 9–10 s (hot region). Data were analyzed using a fitting function derived from the law of mass action:1 [drawing 6] where f(c) is the fluorescence signal (Fnorm) at a given ligand concentration (c), B is Fnorm of fully liganded DDB1 at high ligand concentrations, U is Fnorm of DDB1 alone at low ligand concentrations, Kd is the dissociation constant or binding affinity, cT is the final concentration of DDB1 in the assay (Fig. 3G). For normalization, the data were first transformed using eqn (2) where y is the fraction bound, followed by fitting to eqn (3) (Fig. 5B–E).2 [drawing 7] 3 [drawing 8]

T1 sequence (Q16531 with tags, fused parts or gaps DEL396-705): as the sequence (Q16531 with tags, fused parts or gaps DEL396-705) above

| binding to DDB1 [1] | ability to induce ternary complex [2] | SMILES |
| --- | --- | --- |
| did not show binding potential for DDB1 |  | Cn1cc(-n2cnc3c(NCc4nc5cc(Cl)c(Cl)cc5[nH]4)nc(N4CCOCC4)nc32)cn1 [SR-4835] |
|  | inability to induce such a complex | CN(C)C/C=C/C(=O)Nc1ccc(C(=O)N2CCC[C@@H](Nc3ncc(Cl)c(-c4c[nH]c5ccccc45)n3)C2)cc1 [THZ531, reference compound] |
